{"source": "patent US9198935B2", "about": "“Hydrogen peroxide-based skin disinfectant” (VIROX TECHNOLOGIES INC., priority 2004, dated 2015)", "origin": "cited, not measured here", "tested_on": "Staphylococcus aureus", "note": "Read-outs that look alike come from different tables or passages of the source.", "data": [{"smiles": "OO", "note": "[hydrogen peroxide]", "values": [{"measurement": "time to achieve a greater than 6 log reduction in Staphylococcus aureus", "setting": "25% w/w aqueous solution of hydrogen peroxide", "result": 20, "unit": "seconds"}, {"measurement": "time to achieve a greater than 6 log reduction in Staphylococcus aureus", "setting": "solution containing 3% w/w hydrogen peroxide", "result": 20, "unit": "minutes"}]}]}
